Target: T1, IL-1β (interleukin-1 beta) (Homo sapiens, UniProt P01584)
T1 construct: gene IL1B; 153 residues, single Trp120 and extinction coefficient 11,460 fit the human mature chain; docking model 1ITB chain A
Test: Trp120 fluorescence quenching titration, interaction density function with Scatchard plot
Assay type: binding
Settings: read-out: Kb

T1 sequence (P01584 117-269): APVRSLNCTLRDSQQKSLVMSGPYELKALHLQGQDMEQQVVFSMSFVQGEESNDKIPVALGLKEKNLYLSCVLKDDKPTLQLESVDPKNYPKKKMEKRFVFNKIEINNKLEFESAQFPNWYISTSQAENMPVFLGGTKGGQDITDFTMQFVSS

Kd: 6.99 µM
Structure (SMILES): O=C(/C=C/C=C/c1ccc2c(c1)OCO2)N1CCCCC1 [piperine]
